Experimental data taken from patent US20240166693A1, “METHODS AND COMPOUNDS FOR MODULATING MYOTONIC DYSTROPY 1” (Design Therapeutics, Inc., priority 2020, published 2024).
Starred links: 1 amine or outer side, 2 acyl side, 3 side chain; linkers in the order of their positions; H or OH if unused. Positions of bridges follow the written chain, without caps; N, C: chain ends. Non-standard residues stand in square brackets, D forms with d. Residues, ends and D or L forms follow the SMILES beside them. Chains are numbered I, II in the order given. *: point of attachment. ImPyβIm = Cn1cc(NC(=O)c2nccn2C)cc1C(=O)NCCC(=O)Nc1cn(C)c(C(=O)*)n1; HN(CH2CH2O)5CH2CH2NH = C(COCCOCCOCCOCCOCCN[*:2])N[*:1]; 4Amino1MeIm2CO = Cn1cc(N[*:1])nc1C(=O)[*:2]; Benzoyl(4-tBu) = CC(C)(C)c1ccc(C(=O)*)cc1; Lys(Et2) = CCN(CC)CCCC[C@H](N)C(=O)O; X1 = Cn1cc(N[*:1])cc1C(=O)[*:2]; dDab = NCC[C@@H](N)C(=O)O

tested on: Myotonic Dystrophy 1 affected patient fibroblasts (Coriell GM04602; 1600 CTG repeats); assay: DM1 foci reduction assay (CAG10-Cy3 FISH, average foci per nucleus); type: cell-based; settings: Homo sapiens, Fibroblast, 48 h, read-out: Foci Reduction in Fibroblast EC50, 48 h (nM)
In short: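 DM1 patient fibroblasts (GM04602, 1600 CTG) treated 48 h at 37 °C, 8-point 1:3 dilutions from 3 μM top dose; wild-type GM07492 as control. PFA-fixed, ethanol-permeabilized cells hybridized overnight with 5 nM CAG10-Cy3 probe, DAPI-counterstained, imaged at 20× in 4 fields; average foci per nucleus per well.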

Structure (SMILES)	EC50 [nM]
CCN(CC)CCCC[C@H](NC(=O)CNC(=O)CNC(=O)CNC(=O)c1ccc(C(C)(C)C)cc1)C(=O)N[C@@H](CO)C(=O)NCCOCCOCCOCCOCCOCCNC(=O)CCNC(=O)c1nc(NC(=O)c2cc(NC(=O)CCNC(=O)c3nc(NC(=O)CCCNC(=O)c4cc(NC(=O)c5nc(NC(=O)CCNC(=O)c6cc(NC(=O)c7nccn7C)cn6C)cn5C)cn4C)cn3C)cn2C)cn1C [Compound 99]	< 100
CCN(CC)CCCC[C@H](NC(=O)[C@H](CC(C)C)NC(=O)[C@H](C)NC(=O)[C@H](Cc1ccccc1)NC(=O)c1ccc(C(C)(C)C)cc1)C(=O)N[C@@H](CO)C(=O)NCCOCCOCCOCCOCCOCCNC(=O)CCNC(=O)c1nc(NC(=O)c2cc(NC(=O)CCNC(=O)c3nc(NC(=O)[C@H](N)CCNC(=O)c4cc(NC(=O)c5nc(NC(=O)CCNC(=O)c6cc(NC(=O)c7nccn7C)cn6C)cn5C)cn4C)cn3C)cn2C)cn1C [Compound 101]	100 to 500
CCN(CC)CCCC[C@H](NC(=O)[C@H](CC(C)C)NC(=O)[C@H](C)NC(=O)[C@H](Cc1ccccc1)NC(=O)c1ccc(C(C)(C)C)cc1)C(=O)N[C@@H](CO)C(=O)NCCOCCOCCOCCOCCOCCNC(=O)CCNC(=O)c1nc(NC(=O)c2cc(NC(=O)CCNC(=O)c3nc(NC(=O)[C@@H](CCNC(=O)c4cc(NC(=O)c5nc(NC(=O)CCNC(=O)c6cc(NC(=O)c7nccn7C)cn6C)cn5C)cn4C)NC(C)=O)cn3C)cn2C)cn1C [Compound 102]	100 to 500
CCN(CC)CCCC[C@H](NC(=O)[C@H](CC(C)C)NC(=O)[C@H](C)NC(=O)[C@H](Cc1ccccc1)NC(=O)c1ccc(C(C)(C)C)cc1)C(=O)N[C@@H](CO)C(=O)NCCOCCOCCOCCOCCOCCNC(=O)c1nc(NC(=O)c2cc(NC(=O)CCNC(=O)c3nc(NC(=O)CCCNC(=O)c4nc(NC(=O)c5nc(CC(=O)CCNC(=O)c6cc(NC(=O)c7nccn7C)cn6C)cn5C)cn4C)cn3C)cn2C)cn1C [Compound 103]	< 100
CCN(CC)CCCC[C@H](NC(=O)[C@H](CC(C)C)NC(=O)[C@H](C)NC(=O)[C@H](Cc1ccccc1)NC(=O)c1ccc(C(C)(C)C)cc1)C(=O)N[C@@H](CO)C(=O)NCCOCCOCCOCCOCCOCCNC(=O)c1nc(NC(=O)CCNC(=O)c2cc(NC(=O)c3nc(NC(=O)CCCNC(=O)c4nc(NC(=O)c5nc(CC(=O)CCNC(=O)c6cc(NC(=O)c7nccn7C)cn6C)cn5C)cn4C)cn3C)cn2C)cn1C [Compound 104]	> 500
CCN(CC)CCCC[C@H](NC(=O)[C@H](CC(C)C)NC(=O)[C@H](C)NC(=O)[C@H](Cc1ccccc1)NC(=O)c1ccc(C(C)(C)C)cc1)C(=O)N[C@@H](CO)C(=O)NCCOCCOCCOCCOCCOCCNC(=O)c1nc(NC(=O)c2cc(NC(=O)c3cc(NC(=O)c4nc(NC(=O)CCCNC(=O)c5cc(NC(=O)c6nc(NC(=O)CCNC(=O)c7cc(NC(=O)c8nccn8C)cn7C)cn6C)cn5C)cn4C)cn3C)cn2C)cn1C [Compound 105]	> 500
CCN(CC)CCCC[C@H](NC(=O)[C@H](CC(C)C)NC(=O)[C@H](C)NC(=O)[C@H](Cc1ccccc1)NC(=O)c1ccc(C(C)(C)C)cc1)C(=O)N[C@@H](CO)C(=O)NCCOCCOCCOCCOCCOCCNC(=O)c1nc(NC(=O)CCNC(=O)c2cc(NC(=O)c3nc(NC(=O)CCCNC(=O)c4cc(NC(=O)c5nc(NC(=O)c6cc(NC(=O)c7cc(NC(=O)c8nccn8C)cn7C)cn6C)cn5C)cn4C)cn3C)cn2C)cn1C [Compound 106]	> 500
CCN(CC)CCCC[C@H](NC(=O)[C@H](CC(C)C)NC(=O)[C@H](C)NC(=O)[C@H](Cc1ccccc1)NC(=O)c1ccc(C(C)(C)C)cc1)C(=O)N[C@@H](CO)C(=O)NCCOCCOCCOCCOCCOCCNC(=O)c1nc(NC(=O)CCNC(=O)c2cc(NC(=O)c3nc(NC(=O)CCCNC(=O)c4cc(NC(=O)c5nc(NC(=O)c6cc(NC(=O)c7cccn7C)cn6C)cn5C)cn4C)cn3C)cn2C)cn1C [Compound 107]	> 500
CCN(CC)CCCC[C@H](NC(=O)[C@H](CC(C)C)NC(=O)[C@H](C)NC(=O)[C@H](Cc1ccccc1)NC(=O)c1ccc(C(C)(C)C)cc1)C(=O)N[C@@H](CO)C(=O)NCCOCCOCCOCCOCCOCCNC(=O)c1nc(NC(=O)CCNC(=O)c2cc(NC(=O)c3nc(NC(=O)[C@H](N)CCNC(=O)c4cc(NC(=O)c5nc(NC(=O)c6cc(NC(=O)c7cccn7C)cn6C)cn5C)cn4C)cn3C)cn2C)cn1C [Compound 108]	100 to 500
CCN(CC)CCCC[C@H](NC(=O)[C@H](CC(C)C)NC(=O)[C@H](C)NC(=O)[C@H](Cc1ccccc1)NC(=O)c1ccc(C(C)(C)C)cc1)C(=O)N[C@@H](CO)C(=O)NCCOCCOCCOCCOCCOCCNC(=O)c1nc(NC(=O)CCNC(=O)c2cc(NC(=O)c3nc(NC(=O)[C@@H](CCNC(=O)c4cc(NC(=O)c5nc(NC(=O)c6cc(NC(=O)c7cccn7C)cn6C)cn5C)cn4C)NC(C)=O)cn3C)cn2C)cn1C [Compound 109]	> 500
CCN(CC)CCCC[C@H](NC(=O)[C@H](CC(C)C)NC(=O)[C@H](C)NC(=O)[C@H](Cc1ccccc1)NC(=O)c1ccc(C(C)(C)C)cc1)C(=O)N[C@@H](CO)C(=O)NCCOCCOCCOCCOCCOCCNC(=O)c1cc(NC(=O)c2nc(NC(=O)CCCNC(=O)c3cc(NC(=O)c4nc(NC(=O)CCNC(=O)c5cc(NC(=O)c6nccn6C)cn5C)cn4C)cn3C)cn2C)cn1C [Compound 110]	> 500
CCN(CC)CCCC[C@H](NC(=O)[C@H](CC(C)C)NC(=O)[C@H](C)NC(=O)[C@H](Cc1ccccc1)NC(=O)c1ccc(C(C)(C)C)cc1)C(=O)N[C@@H](CO)C(=O)NCCOCCOCCOCCOCCOCCNC(=O)c1cc(NC(=O)c2nc(NC(=O)[C@H](N)CCNC(=O)c3cc(NC(=O)c4nc(NC(=O)CCNC(=O)c5cc(NC(=O)c6nccn6C)cn5C)cn4C)cn3C)cn2C)cn1C [Compound 111]	> 500
CCN(CC)CCCC[C@H](NC(=O)[C@H](CC(C)C)NC(=O)[C@H](C)NC(=O)[C@H](Cc1ccccc1)NC(=O)c1ccc(C(C)(C)C)cc1)C(=O)N[C@@H](CO)C(=O)NCCOCCOCCOCCOCCOCCNC(=O)c1cc(NC(=O)c2nc(NC(=O)[C@@H](CCNC(=O)c3cc(NC(=O)c4nc(NC(=O)CCNC(=O)c5cc(NC(=O)c6nccn6C)cn5C)cn4C)cn3C)NC(C)=O)cn2C)cn1C [Compound 112]	> 500
CCN(CC)CCCC[C@H](NC(=O)[C@H](CC(C)C)NC(=O)[C@H](C)NC(=O)[C@H](Cc1ccccc1)NC(=O)c1ccc(C(C)(C)C)cc1)C(=O)N[C@@H](CO)C(=O)NCCOCCOCCOCCOCCOCCNC(=O)c1cc(NC(=O)c2cc(NC(=O)c3nc(NC(=O)c4cc(NC(=O)CCCNC(=O)c5nc(NC(=O)CCNC(=O)c6cc(NC(=O)c7nccn7C)cn6C)cn5C)cn4C)cn3C)cn2C)cn1C [Compound 113]	> 500
CCN(CC)CCCC[C@H](NC(=O)[C@H](CC(C)C)NC(=O)[C@H](C)NC(=O)[C@H](Cc1ccccc1)NC(=O)c1ccc(C(C)(C)C)cc1)C(=O)N[C@@H](CO)C(=O)NCCOCCOCCOCCOCCOCCNC(=O)c1cc(NC(=O)c2cc(NC(=O)c3nc(NC(=O)c4cc(NC(=O)[C@@H](CCNC(=O)c5nc(NC(=O)CCNC(=O)c6cc(NC(=O)c7nccn7C)cn6C)cn5C)NC(C)=O)cn4C)cn3C)cn2C)cn1C [Compound 114] (I: {Benzoyl(4-tBu)}-FAL[Lys(Et2)]S / II: Ac-[dDab](ImPyβIm)[X1][4Amino1MeIm2CO][X1][X1]; linker I:C-II:C via HN(CH2CH2O)5CH2CH2NH)	> 500
CCN(CC)CCCC[C@H](NC(=O)[C@H](CC(C)C)NC(=O)[C@H](C)NC(=O)[C@H](Cc1ccccc1)NC(=O)c1ccc(C(C)(C)C)cc1)C(=O)N[C@@H](CO)C(=O)NCCOCCOCCOCCOCCOCCNC(=O)c1cc(NC(=O)c2nc(NC(=O)c3cc(NC(=O)CCCNC(=O)c4nc(NC(=O)CCNC(=O)c5cc(NC(=O)c6nccn6C)cn5C)cn4C)cn3C)cn2C)cn1C [Compound 115]	> 500
CCN(CC)CCCC[C@H](NC(=O)[C@H](CC(C)C)NC(=O)[C@H](C)NC(=O)[C@H](Cc1ccccc1)NC(=O)c1ccc(C(C)(C)C)cc1)C(=O)N[C@@H](CO)C(=O)NCCOCCOCCOCCOCCOCCNC(=O)c1cc(NC(=O)c2nc(NC(=O)c3cc(NC(=O)[C@H](N)CCNC(=O)c4nc(NC(=O)CCNC(=O)c5cc(NC(=O)c6nccn6C)cn5C)cn4C)cn3C)cn2C)cn1C [Compound 116]	> 500
CCN(CC)CCCC[C@H](NC(=O)[C@H](CC(C)C)NC(=O)[C@H](C)NC(=O)[C@H](Cc1ccccc1)NC(=O)c1ccc(C(C)(C)C)cc1)C(=O)N[C@@H](CO)C(=O)NCCOCCOCCOCCOCCOCCNC(=O)c1cc(NC(=O)c2nc(NC(=O)c3cc(NC(=O)[C@H](CCNC(=O)c4nc(NC(=O)CCNC(=O)c5cc(NC(=O)c6nccn6C)cn5C)cn4C)NC(C)=O)cn3C)cn2C)cn1C [Compound 117]	> 500
CC(C)C[C@H](NC(=O)[C@H](C)NC(=O)[C@H](Cc1ccccc1)NC(=O)c1ccc(C(C)(C)C)cc1)C(=O)N[C@@H](CCCCN(C)C1CC2CCC1C2)C(=O)N[C@@H](CO)C(=O)NCCOCCOCCNC(=O)c1cc(NC(=O)c2cc(NC(=O)c3nc(NC(=O)c4cc(NC(=O)[C@@H](N)CCNC(=O)c5nc(NC(=O)c6cc(NC(=O)c7cc(NC(=O)c8nccn8C)cn7C)cn6C)cn5C)cn4C)cn3C)cn2C)cn1C (stereo partly drawn) [Compound 118]	> 500
CC(C)C[C@H](NC(=O)[C@H](C)NC(=O)[C@H](Cc1ccccc1)NC(=O)c1ccc(C(C)(C)C)cc1)C(=O)N[C@@H](CCCCN(C)C1CC2CCC1C2)C(=O)N[C@@H](CO)C(=O)NCCOCCOCCOCCOCCOCCOCCOCCOCCOCCOCCNC(=O)c1cc(NC(=O)c2cc(NC(=O)c3nc(NC(=O)c4cc(NC(=O)[C@@H](N)CCNC(=O)c5nc(NC(=O)c6cc(NC(=O)c7cc(NC(=O)c8nccn8C)cn7C)cn6C)cn5C)cn4C)cn3C)cn2C)cn1C (stereo partly drawn) [Compound 119]	> 500

same assay, conditions: Homo sapiens, Fibroblast; DM1 fibroblasts, 48 h treatment, 8-point dose response, 3 μM top dose; read-out: Foci Reduction in Fibroblast EC50, 48 h

Structure (SMILES)	EC50 [nM]
Cn1cc(NC(=O)c2cc(NC(=O)c3nc(NC(=O)c4cc(NC(=O)[C@@H](N)CCNC(=O)c5nc(NC(=O)CCNC(=O)c6cc(NC(=O)c7nccn7C)cn6C)cn5C)cn4C)cn3C)cn2C)cc1C(=O)NCCOCCOCCOCCOCCOCCN1CCC(C(=O)Nc2ncc(SCc3ncc(C(C)(C)C)o3)s2)CC1 [Compound 120]	> 500
